Data taken from patent US4345938A, “Herbicidal 2-haloacetanilides” (Monsanto Company, priority 1980, dated 1982).
Read-outs that look alike come from different tables or passages of the source.

Tests used:
Type in all cases: in vivo
Wheat = assay: Pre-emergent herbicidal test, Wheat; settings: Table II; further: ranges in brackets are in %
Text: (§1) A good grade of top soil is placed in aluminum pans and compacted to a depth of three-eights to one-half inch from the top of the pan. On the top of the soil is placed a number of seeds or vegetative propagules of various plant species. The soil required to level fill the pans after seeding or adding vegetative propagules is weighted into a pan. The soil and a known amount of the active ingredient applied in a solvent or as a wettable powder suspension are thoroughly mixed, and used to cover the prepared pans. After treatment, the pans are moved into a greenhouse bench where they are watered by subirrigation as needed to give adequate moisture for germination and growth.
(§2) Approximately 2 weeks after seeding and treating, the plants were observed and the results recorded. The herbicidal rating was obtained by means of a fixed scale based on the percent injury of each plant species. The ratings are defined as follows: […]
(§3) The compounds were further tested by utilizing the above procedure on the following plant species: […]

Lambsquarters = assay: Pre-emergent herbicidal test, Lambsquarters; further: ranges in brackets are in %
Text: as §1, §2

Morningglory = assay: Pre-emergent herbicidal test, Morningglory; further: ranges in brackets are in %
Text: as §1, §2

Echinochloa crus-galli = assay: Field transplant rice test, applied 9 DAT, EC; settings: for inhibition at 375 g/ha / inhibition at 750 g/ha / inhibition at 1500 g/ha / inhibition at 3000 g/ha: Echinochloa crus-galli, 216 h, read-out: Percent Inhibition, EC; for inhibition at 375 g/ha: 0.375 Kg/Ha; for inhibition at 750 g/ha: 0.75 Kg/Ha; for inhibition at 1500 g/ha: 1.5 Kg/Ha; for inhibition at 3000 g/ha: 3.0 Kg/Ha
Text: (§4) In the discussion of data below, occasional reference is made to herbicide application rates symbolized as "GR15 " and "GR85 "; these rates are given in kilograms per hectare (kg/ha) which are convertible into pounds per acre (lbs/A) by dividing the kg/ha rate by 1.12.
(§5) A further guide to the effectiveness of a chemical as a selective herbicide is the "selectivity factor" ("SF") for a herbicide in given crops and weeds. The selectivity factor is a measure of the relative degree of crop safety and weed injury and is expressed in terms of the GR15 /GR85 ratio, i.e., the GR15 rate for the crop divided by the GR85 rate for the weed, both rates in kg/ha (lb/A.)
(§6) The test data in Table III for all compounds was obtained under identical test conditions. The weeds used in the tests herein have the following abbreviations in the tables: Echinochloa crus-galli (EC), Monochloria vaginalis (MV), Cyperus Serotinus (CS), Eleocharis Kuroguwai (EK) and Sagittaria trifolia (ST).
(§7) In further comparative tests, a preferred compound of this invention (Example 1) was tested in the field with prior art Compounds A-D. These tests were conducted under conditions reflecting herbicide application times generally favorable to all herbicides in the test. The timing of application of herbicides to transplant rice is very important, whether, as in some instances, prior to transplanting the rice; in other instances, at the time of transplanting or else after transplanting. Application times are conventionally referred to as "days before transplant" (DBT) or "days after transplant" ("DAT"). The field test data in Table IV was obtained from a test in which the herbicides were applied at the time of transplant, i.e., "0 DAT", with observations being made weekly up to six weeks after transplant ("WAT") beginning at two weeks after transplant; for illustrative and representative purposes, only the early, middle and late period observations, i.e., 2 WAT, 4 WAT and 6 WAT, are shown in Table IV. The data in Table IV is for rates of application common to all herbicides in the test, i.e., from 3.0 kg/ha (2.67 lb/A) down to 0.375 kg/ha (0.34 lb/A). All herbicides were applied at their actual or expected use rates, i.e., as granules containing 2.5% by weight herbicide for the compound of Example 1, Compounds B, C and D and 5.0% by weight for Compound A.
(§8) In Table V are presented field data showing the relative performance of the compound of Example 1 and Compounds A-D applied 9 DAT, with observations being made weekly from 3 WAT to 7 WAT; again, for illustrative and representative purposes, only the early, middle and late period observations are reported in Table V, the herbicide rates and concentrations of active ingredients the same as is shown in Table IV.

Smartweed = assay: Pre-emergent herbicidal test, Smartweed; further: ranges in brackets are in %
Text: as §1, §2

Cyperus serotinus = assay: Field transplant rice test, applied 9 DAT, CS; settings: for inhibition at 375 g/ha / inhibition at 750 g/ha / inhibition at 1500 g/ha / inhibition at 3000 g/ha: Cyperus serotinus, 216 h, read-out: Percent Inhibition, CS; for inhibition at 375 g/ha: 0.375 Kg/Ha; for inhibition at 750 g/ha: 0.75 Kg/Ha; for inhibition at 1500 g/ha: 1.5 Kg/Ha; for inhibition at 3000 g/ha: 3.0 Kg/Ha; for selectivity factor (GR15/GR85), CS in transplant rice: between 3 WAT and 7 WAT
Text: as §4, §5, §6, §7, §8

Panicum Spp. = assay: Pre-emergent herbicidal test, Panicum Spp.; further: ranges in brackets are in %; settings: Table II
Text: as §1, §2, §3

Quackgrass = assay: Pre-emergent herbicidal test, Quackgrass; settings: Table I; further: ranges in brackets are in %
Text: as §1, §2

CCCCOc1cccc(CC)c1N(C)C(=O)CCl [Example 1, N-methyl-2'-n-butoxy-6'-ethyl-2-chloroacetanilide]
Rating, Wheat (Wheat; 0.006 kg/h): 0 (0-24) | Rating, Wheat (Wheat; 0.01 kg/h): 0 (0-24) | Rating, Wheat (Wheat; 0.06 kg/h): 1 (25-49) | Rating, Wheat (Wheat; 0.28 kg/h): 2 (50-74) | Rating, Wheat (Wheat; 1.12 kg/h): 2 (50-74) | Rating, Wheat (Wheat; 5.6 kg/h): 3 (75-100) | Rating, Lambsquarters (Lambsquarters; Table I, 5.6 kg/h): 3 (75-100) | Rating, Lambsquarters (Lambsquarters; Table I, 11.2 kg/h): 3 (75-100) | Rating, Lambsquarters (Lambsquarters; Table II, 0.006 kg/h): 0 (0-24) | Rating, Lambsquarters (Lambsquarters; Table II, 0.01 kg/h): 0 (0-24) | Rating, Lambsquarters (Lambsquarters; Table II, 0.06 kg/h): 0 (0-24) | Rating, Lambsquarters (Lambsquarters; Table II, 0.28 kg/h): 2 (50-74) | Rating, Lambsquarters (Lambsquarters; Table II, 1.12 kg/h): 3 (75-100) | Rating, Lambsquarters (Lambsquarters; Table II, 5.6 kg/h): 3 (75-100) | Rating, Morningglory (Morningglory; Table I, 5.6 kg/h): 2 (50-74) | Rating, Morningglory (Morningglory; Table I, 11.2 kg/h): 1 (25-49) | Rating, Morningglory (Morningglory; Table II, 0.006 kg/h): 0 (0-24) | Rating, Morningglory (Morningglory; Table II, 0.06 kg/h): 0 (0-24) | Rating, Morningglory (Morningglory; Table II, 0.28 kg/h): 0 (0-24) | Rating, Morningglory (Morningglory; Table II, 1.12 kg/h): 2 (50-74) | Rating, Morningglory (Morningglory; Table II, 5.6 kg/h): 3 (75-100) | inhibition at 375 g/ha (Echinochloa crus-galli; 3 WAT): 90% | inhibition at 375 g/ha (Echinochloa crus-galli; 5 WAT): 88% | inhibition at 375 g/ha (Echinochloa crus-galli; 7 WAT): 78% | inhibition at 750 g/ha (Echinochloa crus-galli; 3 WAT): 100% | inhibition at 750 g/ha (Echinochloa crus-galli; 5 WAT): 100% | inhibition at 750 g/ha (Echinochloa crus-galli; 7 WAT): 100% | inhibition at 1500 g/ha (Echinochloa crus-galli; 3 WAT): 100% | inhibition at 1500 g/ha (Echinochloa crus-galli; 5 WAT): 98% | inhibition at 1500 g/ha (Echinochloa crus-galli; 7 WAT): 100% | inhibition at 3000 g/ha (Echinochloa crus-galli; 3 WAT): 100% | inhibition at 3000 g/ha (Echinochloa crus-galli; 5 WAT): 100% | inhibition at 3000 g/ha (Echinochloa crus-galli; 7 WAT): 100% | Rating, Smartweed (Smartweed; Table I, 5.6 kg/h): 2 (50-74) | Rating, Smartweed (Smartweed; Table I, 11.2 kg/h): 3 (75-100) | Rating, Smartweed (Smartweed; Table II, 0.006 kg/h): 0 (0-24) | Rating, Smartweed (Smartweed; Table II, 0.01 kg/h): 0 (0-24) | Rating, Smartweed (Smartweed; Table II, 0.06 kg/h): 0 (0-24) | Rating, Smartweed (Smartweed; Table II, 0.28 kg/h): 2 (50-74) | Rating, Smartweed (Smartweed; Table II, 1.12 kg/h): 3 (75-100) | Rating, Smartweed (Smartweed; Table II, 5.6 kg/h): 3 (75-100) | inhibition at 375 g/ha (Cyperus serotinus; 3 WAT): 100% | inhibition at 375 g/ha (Cyperus serotinus; 5 WAT): 98% | inhibition at 375 g/ha (Cyperus serotinus; 7 WAT): 97% | inhibition at 750 g/ha (Cyperus serotinus; 3 WAT): 93% | inhibition at 750 g/ha (Cyperus serotinus; 5 WAT): 93% | inhibition at 750 g/ha (Cyperus serotinus; 7 WAT): 95% | inhibition at 1500 g/ha (Cyperus serotinus; 3 WAT): 82% | inhibition at 1500 g/ha (Cyperus serotinus; 5 WAT): 100% | inhibition at 1500 g/ha (Cyperus serotinus; 7 WAT): 67% | inhibition at 3000 g/ha (Cyperus serotinus; 3 WAT): 100% | inhibition at 3000 g/ha (Cyperus serotinus; 5 WAT): 100% | inhibition at 3000 g/ha (Cyperus serotinus; 7 WAT): 100% | selectivity factor (GR15/GR85), CS in transplant rice (Cyperus serotinus): 16 | Rating, Panicum Spp. (Panicum Spp.; 0.006 kg/h): 0 (0-24) | Rating, Panicum Spp. (Panicum Spp.; 0.01 kg/h): 1 (25-49) | Rating, Panicum Spp. (Panicum Spp.; 0.06 kg/h): 3 (75-100) | Rating, Panicum Spp. (Panicum Spp.; 0.28 kg/h): 3 (75-100) | Rating, Panicum Spp. (Panicum Spp.; 1.12 kg/h): 3 (75-100) | Rating, Panicum Spp. (Panicum Spp.; 5.6 kg/h): 3 (75-100) | Rating, Quackgrass (Quackgrass; 5.6 kg/h): 3 (75-100) | Rating, Quackgrass (Quackgrass; 11.2 kg/h): 3 (75-100)

CCCOCCN(C(=O)CCl)c1c(CC)cccc1CC [Compound D, 2',6'-diethyl-N-(n-propoxyethyl)-2-chloroacetanilide]
inhibition at 375 g/ha (Echinochloa crus-galli; 3 WAT): 62% | inhibition at 375 g/ha (Echinochloa crus-galli; 5 WAT): 48% | inhibition at 375 g/ha (Echinochloa crus-galli; 7 WAT): 57% | inhibition at 750 g/ha (Echinochloa crus-galli; 3 WAT): 88% | inhibition at 750 g/ha (Echinochloa crus-galli; 5 WAT): 92% | inhibition at 750 g/ha (Echinochloa crus-galli; 7 WAT): 88% | inhibition at 1500 g/ha (Echinochloa crus-galli; 3 WAT): 78% | inhibition at 1500 g/ha (Echinochloa crus-galli; 5 WAT): 75% | inhibition at 1500 g/ha (Echinochloa crus-galli; 7 WAT): 78% | inhibition at 3000 g/ha (Echinochloa crus-galli; 3 WAT): 100% | inhibition at 3000 g/ha (Echinochloa crus-galli; 5 WAT): 100% | inhibition at 3000 g/ha (Echinochloa crus-galli; 7 WAT): 100% | selectivity factor (GR15/GR85), EC in transplant rice (Echinochloa crus-galli; between 3 WAT and 7 WAT): 1 | inhibition at 375 g/ha (Cyperus serotinus; 3 WAT): 92% | inhibition at 375 g/ha (Cyperus serotinus; 5 WAT): 87% | inhibition at 375 g/ha (Cyperus serotinus; 7 WAT): 67% | inhibition at 750 g/ha (Cyperus serotinus; 3 WAT): 77% | inhibition at 750 g/ha (Cyperus serotinus; 5 WAT): 67% | inhibition at 750 g/ha (Cyperus serotinus; 7 WAT): 33% | inhibition at 1500 g/ha (Cyperus serotinus; 3 WAT): 77% | inhibition at 1500 g/ha (Cyperus serotinus; 5 WAT): 77% | inhibition at 1500 g/ha (Cyperus serotinus; 7 WAT): 100% | inhibition at 3000 g/ha (Cyperus serotinus; 3 WAT): 90% | inhibition at 3000 g/ha (Cyperus serotinus; 5 WAT): 100% | inhibition at 3000 g/ha (Cyperus serotinus; 7 WAT): 100% | selectivity factor (GR15/GR85), CS in transplant rice (Cyperus serotinus): 1
